Values after ≈ are worked out from the molar mass of the structure shown.
How the values were obtained:
Enterococcus sp. = test: In vitro antibacterial evaluation: minimum inhibitory concentration (MIC), broth dilution method; assay type: cell-based
Method in brief: (§1)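 Test strains, among them recent clinical isolates carrying methicillin, penicillin and/or vancomycin resistance, were inoculated at 5×10^5 CFU/mL. A broth dilution series spanning 64-0.06 μg/mL in Muller-Hinton II […] (NCCLS M7-A2) defined the MIC as the lowest growth-inhibiting concentration.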

Escherichia coli = test: as above; assay type: cell-based; settings: strain GC 4560
Method in brief: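 NCCLS M7-A2 broth dilution; Muller-Hinton II […]; 5×10^5 CFU/mL; 64-0.06 μg/mL. MIC = lowest concentration with no growth.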

Staphylococcus sp. = test: as above; assay type: cell-based; settings: broth dilution, 18 hours at 35° C.
Method in brief: as §1

Streptococcus sp. = test: as above; assay type: cell-based
Method in brief: as §1

[1] = system: Staphylococcus aureus-SMITH (GC 4543); test: Acute lethal infection in mice (ED50); assay type: in vivo; settings: female CD-1 mice, intraperitoneal challenge, intravenous dose 30 min. after infection, 7 day survival ratios
Method in brief: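 Female CD-1 mice (20 ± 1-2 g) were infected intraperitoneally with enough bacteria, suspended in Trypticase Soy Broth or hog gastric mucin, to kill untreated controls within 24-48 hr. Compound in saline or 5% dextrose was given intravenously 30 min after infection. ED50 came from pooled 7-day survival over 3 tests.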

[2] = assay type: in vivo; settings: mice, 20 mg/kg intravenously daily for 9 days, serum on day 10
Description: 20-day-old CD-1 mice were divided into a vehicle control group (5 mice) and a treatment group (5 mice). Samples of glycopeptide antibiotics were administered at 20 mg/kg intravenously daily for 9 days. Animals were necropsied on day 10 Sera were analyzed for BUN (blood urea nitrogen), creatinine, AST (aspartic aminotransferase), and ALT (alanine aminotransferase) by routine, standard, automated methods using an Hitachi 747 chemistry analyzer.

[3] = Anatomic pathology (heart and kidney histopathology) in mice; assay type: in vivo, CD-1 mice; settings: 20 mg/kg intravenously daily for 9 days, microscopic histopathology on day 10
Method in brief: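 Juvenile CD-1 mice (20 days old; 5 vehicle, 5 treated) received glycopeptide antibiotic 20 mg/kg i.v. daily for 9 days. Necropsied tissues formalin-fixed, paraffin-embedded, H&E stained and examined microscopically; findings graded slight to severe versus controls.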

In the case of `CC(c1ccccc1)C1NC(=O)CNC(=O)C(CO)NC(=O)C(C(O)C2CN(Cc3ccc(-c4ccccc4)cc3)C(=N)N2C2OC(CO)C(O)C(O)C2O)NC(=O)C(C(O)C2CNC(=NCc3ccc(-c4ccccc4)cc3)N2Cc2ccc(-c3ccccc3)cc2)NC(=O)C(Cc2ccc(OC3OC(CO)C(OC4OC(CO)C(O)C(O)C4O)C(O)C3O)cc2)NC1=O` (stereo not drawn) [Example 66], the “MIC Enterococcus avium (GC 4558)” value (Enterococcus sp.; Enterococcus avium (GC 4558), broth dilution, 18 hours at 35° C.) was 4 µg/mL (≈ 2.23 µM), the “MIC Enterococcus faecalis (ATCC 29212)” value (Enterococcus sp.; Enterococcus faecalis (ATCC 29212), broth dilution, 18 hours at 35° C.) was 16 µg/mL (≈ 8.92 µM) and the “MIC Enterococcus faecalis (GC 2242)” value (Enterococcus sp.; Enterococcus faecalis (GC 2242), broth dilution, 18 hours at 35° C.) was 16 µg/mL (≈ 8.92 µM). For the same compound, the “MIC Enterococcus faecalis (GC 2691)” value (Enterococcus sp.; Enterococcus faecalis (GC 2691), broth dilution, 18 hours at 35° C.) was 32 µg/mL (≈ 17.8 µM), the “MIC Enterococcus faecalis (GC 3059)” value (Enterococcus sp.; Enterococcus faecalis (GC 3059), broth dilution, 18 hours at 35° C.) was 32 µg/mL (≈ 17.8 µM) and the “MIC Enterococcus faecalis (GC 4552)” value (Enterococcus sp.; Enterococcus faecalis (GC 4552), broth dilution, 18 hours at 35° C.) was 32 µg/mL (≈ 17.8 µM). The “MIC Enterococcus faecalis (GC 4553)” value (Enterococcus sp.; Enterococcus faecalis (GC 4553), broth dilution, 18 hours at 35° C.) was 8 µg/mL (≈ 4.46 µM), the “MIC Enterococcus faecalis (GC 4554)” value (Enterococcus sp.; Enterococcus faecalis (GC 4554), broth dilution, 18 hours at 35° C.) was 64 µg/mL (≈ 35.7 µM) and the “MIC Enterococcus faecalis (GC 6189)” value (Enterococcus sp.; Enterococcus faecalis (GC 6189), broth dilution, 18 hours at 35° C.) was 32 µg/mL (≈ 17.8 µM). The “MIC Enterococcus faecium (GC 2243)” value (Enterococcus sp.; Enterococcus faecium (GC 2243), broth dilution, 18 hours at 35° C.) was 8 µg/mL (≈ 4.46 µM), the “MIC Enterococcus faecium (GC 4556)” value (Enterococcus sp.; Enterococcus faecium (GC 4556), broth dilution, 18 hours at 35° C.) was 32 µg/mL (≈ 17.8 µM) and the “MIC Enterococcus faecium (GC 4557)” value (Enterococcus sp.; Enterococcus faecium (GC 4557), broth dilution, 18 hours at 35° C.) was 4 µg/mL (≈ 2.23 µM). The “MIC Enterococcus faecalis (ATCC 29212)” value (Enterococcus sp.; strain ATCC 29212) was 16 µg/mL (≈ 8.92 µM), the “MIC Enterococcus faecalis (GC 2242)” value (Enterococcus sp.; strain GC 2242) was 16 µg/mL (≈ 8.92 µM) and the “MIC Enterococcus faecium (GC 2243)” value (Enterococcus sp.; strain GC 2243) was 8 µg/mL (≈ 4.46 µM). For the same compound, the “MIC Enterococcus faecalis (GC 2691)” value (Enterococcus sp.; strain GC 2691) was 32 µg/mL (≈ 17.8 µM), the “MIC Enterococcus faecalis (GC 3059)” value (Enterococcus sp.; strain GC 3059) was 32 µg/mL (≈ 17.8 µM) and the “MIC Enterococcus faecalis (GC 4552)” value (Enterococcus sp.; strain GC 4552) was 32 µg/mL (≈ 17.8 µM). The “MIC Enterococcus faecalis (GC 4553)” value (Enterococcus sp.; strain GC 4553) was 8 µg/mL (≈ 4.46 µM), the “MIC Enterococcus faecalis (GC 4554)” value (Enterococcus sp.; strain GC 4554) was 64 µg/mL (≈ 35.7 µM) and the “MIC Enterococcus faecium (GC 4556)” value (Enterococcus sp.; strain GC 4556) was 32 µg/mL (≈ 17.8 µM). For the same compound, the “MIC Enterococcus faecium (GC 4557)” value (Enterococcus sp.; strain GC 4557) was 4 µg/mL (≈ 2.23 µM), the “MIC Enterococcus avium (GC 4558)” value (Enterococcus sp.; strain GC 4558) was 4 µg/mL (≈ 2.23 µM) and the “MIC Enterococcus faecalis (GC 6189)” value (Enterococcus sp.; strain GC 6189) was 32 µg/mL (≈ 17.8 µM). The “MIC Escherichia coli (GC 4560)” value (Escherichia coli) was 4 µg/mL (≈ 2.23 µM), the “MIC Coagulase Negative Staphylococcus (GC 4547)” value (Staphylococcus sp.) was 4 µg/mL (≈ 2.23 µM) and the “MIC Coagulase Negative Staphylococcus (GC 4548)” value (Staphylococcus sp.) was 8 µg/mL (≈ 4.46 µM). The “MIC Coagulase Negative Staphylococcus (GC 4549)” value (Staphylococcus sp.) was 4 µg/mL (≈ 2.23 µM), the “MIC Coagulase Negative Staphylococcus (GC 4551)” value (Staphylococcus sp.) was 8 µg/mL (≈ 4.46 µM) and the “MIC Coagulase Negative Staphylococcus (GC 6257)” value (Staphylococcus sp.) was 4 µg/mL (≈ 2.23 µM). The “MIC Staphylococcus aureus (ATCC 29213)” value (Staphylococcus sp.) was 8 µg/mL (≈ 4.46 µM), the “MIC Staphylococcus aureus (GC 1131)” value (Staphylococcus sp.) was 16 µg/mL (≈ 8.92 µM) and the “MIC Staphylococcus aureus (GC 3051)” value (Staphylococcus sp.) was 8 µg/mL (≈ 4.46 µM). For the same compound, the “MIC Staphylococcus aureus (GC 3053)” value (Staphylococcus sp.) was 8 µg/mL (≈ 4.46 µM), the “MIC Staphylococcus aureus (GC 4541)” value (Staphylococcus sp.) was 8 µg/mL (≈ 4.46 µM) and the “MIC Staphylococcus aureus (GC 4542)” value (Staphylococcus sp.) was 8 µg/mL (≈ 4.46 µM). For the same compound, the “MIC Staphylococcus aureus (GC 4544)” value (Staphylococcus sp.) was 8 µg/mL (≈ 4.46 µM), the “MIC Staphylococcus aureus (GC 4545)” value (Staphylococcus sp.) was 4 µg/mL (≈ 2.23 µM) and the “MIC Staphylococcus aureus SMITH (GC 4543)” value (Staphylococcus sp.) was 8 µg/mL (≈ 4.46 µM). For the same compound, the “MIC Staphylococcus haemolyticus (GC 4546)” value (Staphylococcus sp.) was 4 µg/mL (≈ 2.23 µM), the “MIC Staphylococcus aureus (ATCC 29213)” value (Staphylococcus sp.; strain ATCC 29213) was 8 µg/mL (≈ 4.46 µM) and the “MIC Staphylococcus aureus (GC 1131)” value (Staphylococcus sp.; strain GC 1131) was 16 µg/mL (≈ 8.92 µM). For the same compound, the “MIC Staphylococcus aureus (GC 3051)” value (Staphylococcus sp.; strain GC 3051) was 8 µg/mL (≈ 4.46 µM), the “MIC Staphylococcus aureus (GC 3053)” value (Staphylococcus sp.; strain GC 3053) was 8 µg/mL (≈ 4.46 µM) and the “MIC Staphylococcus aureus (GC 4541)” value (Staphylococcus sp.; strain GC 4541) was 8 µg/mL (≈ 4.46 µM). For the same compound, the “MIC Staphylococcus aureus (GC 4542)” value (Staphylococcus sp.; strain GC 4542) was 8 µg/mL (≈ 4.46 µM), the “MIC Staphylococcus aureus (GC 4544)” value (Staphylococcus sp.; strain GC 4544) was 8 µg/mL (≈ 4.46 µM) and the “MIC Staphylococcus aureus (GC 4545)” value (Staphylococcus sp.; strain GC 4545) was 4 µg/mL (≈ 2.23 µM). For the same compound, the “MIC Coagulase Negative Staphylococcus (GC 4547)” value (Staphylococcus sp.; strain GC 4547) was 4 µg/mL (≈ 2.23 µM), the “MIC Coagulase Negative Staphylococcus (GC 4548)” value (Staphylococcus sp.; strain GC 4548) was 8 µg/mL (≈ 4.46 µM) and the “MIC Coagulase Negative Staphylococcus (GC 4549)” value (Staphylococcus sp.; strain GC 4549) was 4 µg/mL (≈ 2.23 µM). For the same compound, the “MIC Coagulase Negative Staphylococcus (GC 4551)” value (Staphylococcus sp.; strain GC 4551) was 8 µg/mL (≈ 4.46 µM), the “MIC Coagulase Negative Staphylococcus (GC 6257)” value (Staphylococcus sp.; strain GC 6257) was 4 µg/mL (≈ 2.23 µM) and the “MIC Staphylococcus aureus-SMITH (GC 4543)” value (Staphylococcus sp.; strain SMITH GC 4543) was 8 µg/mL (≈ 4.46 µM). The “MIC Streptococcus agalactiae (GC 4564)” value (Streptococcus sp.; Streptococcus agalactiae (GC 4564), broth dilution, 18 hours at 35° C.) was 32 µg/mL (≈ 17.8 µM), the “MIC Streptococcus pneumoniae (ATCC 6301)” value (Streptococcus sp.; Streptococcus pneumoniae (ATCC 6301), broth dilution, 18 hours at 35° C.) was 32 µg/mL (≈ 17.8 µM) and the “MIC Streptococcus pneumoniae (GC 1894)” value (Streptococcus sp.; Streptococcus pneumoniae (GC 1894), broth dilution, 18 hours at 35° C.) was 32 µg/mL (≈ 17.8 µM). For the same compound, the “MIC Streptococcus pneumoniae (GC 4565)” value (Streptococcus sp.; Streptococcus pneumoniae (GC 4565), broth dilution, 18 hours at 35° C.) was 64 µg/mL (≈ 35.7 µM), the “MIC Streptococcus pyogenes (GC 4563)” value (Streptococcus sp.; Streptococcus pyogenes (GC 4563), broth dilution, 18 hours at 35° C.) was 16 µg/mL (≈ 8.92 µM) and the “MIC Streptococcus pneumoniae (ATCC 6301)” value (Streptococcus sp.; strain ATCC 6301) was 32 µg/mL (≈ 17.8 µM). The “MIC Streptococcus pneumoniae (GC 1894)” value (Streptococcus sp.; strain GC 1894) was 32 µg/mL (≈ 17.8 µM), the “MIC Streptococcus pyogenes (GC 4563)” value (Streptococcus sp.; strain GC 4563) was 16 µg/mL (≈ 8.92 µM) and the “MIC Streptococcus agalactiae (GC 4564)” value (Streptococcus sp.; strain GC 4564) was 32 µg/mL (≈ 17.8 µM). The “MIC Streptococcus pneumoniae (GC 4565)” value (Streptococcus sp.; strain GC 4565) was 64 µg/mL (≈ 35.7 µM), the “median effective dose (ED50), Staphylococcus aureus-SMITH (GC 4543)” value [1] was >8 and the “Clinical Chemistry (Day 10) % of Control, ALT” value [2] was 182%. For the same compound, the “Clinical Chemistry (Day 10) % of Control, AST” value [2] was 147%, the “Anatomical Pathology (Day 10), Heart” value [3] was 0 and the “Anatomical Pathology (Day 10), Kidney” value [3] was 0.
